Reference: US12575768B2, “Analyte sensor antimicrobial configurations and adhesives” (Abbott Diabetes Care, Inc., priority 2018, dated 2026)

Tested on: gram-positive bacteria strains associated with common skin flora and wound infection
Assay: modified Kirby-Bauer disk diffusion assay, overall conclusion
Type: cell-based
Settings: conclusion from zone of inhibition measurements of Table 1
Procedure: Example 3: […] Testing of Silver-Based Antimicrobial Quality. In this example, sensors membranes comprising the silver-based antimicrobial compounds of Example 2 (tested in quadruplicate for each of the sensors in Example 2) and the Control of Example 2 were evaluated […] against a variety of gram-positive bacteria strains associated with common skin flora and wound infection, and which were nosocomial-derived using a modified Kirby-Bauer disk diffusion assay for antibiotic susceptibility testing. The bacteria used for evaluation were Staphylococcus aureus (MRSA) (ATCC #33591), Staphylococcus epidermidis (ATCC #12228), Enterococcus faecalis (ATCC #4082), and Streptococcus pyogenes (ATCC #19615). Each were cultured on Tryptic Soy Agar, except for S. pyogenes, which were cultured on Blood Agar.

Structure (SMILES) | antimicrobial properties (in words)
[Cl][Ag] [silver chloride] | demonstrate antimicrobial properties
[Ag][I] [silver iodide] | demonstrate antimicrobial properties
